According to US20240197733A1, “A GABA RECEPTOR MODULATOR FOR USE IN THE TREATMENT OF PAIN” (SANIONA A/S, priority 2021, published 2024):

Tests used:
Format in all cases: in vivo, Sprague-Dawley rats
[1] = test system: electrocutaneous stimulation-induced facial pain rodent model; test: ES-induced facial pain model, mechanical allodynia (Von Frey filaments), acute treatment; conditions: 30 mg/kg po, acute, 2 and 4 hours post dosing; p<0.001, p<0.0001 vs vehicle
From the text: (§1) The electrocutaneous stimulation-induced facial pain rodent model is a reproducible orofacial pain model in which depilated cheek area of rats are repeatedly subjected to electrical stimulation. Repeated electrical stimulation at low intensities produces craniofacial pain that mimics the behavioral characteristics of TN such as development of mechanical and thermal allodynia at cheeks despite no visible edema, swelling or excessive injury and tissue damage.
(§2) Male wild type, Sprague-Dawley rats (Charles River Laboratories) born in-house at AfaSci Research Laboratory between May 24, 2020 to May 28, 2020. At approximately 3 months of age (approximately 350 g-450 g body weight) the rats were deemed suitable for the electrocutaneous stimulation-induced facial pain model. Prior to the experiment, the rats were maintained in group cages (3 rats per cage) in a controlled environment (temperature: 21.5±4.5° C./relative humidity: 35-55%) under a standard 12 h light/12 h dark lighting cycle (lights on at 06:00).
(§3) The required quantity of the compounds are weighed and dissolved in 100% DMSO in a volume amounting to 5% of the total volume while placed on a stirrer. The weight of the compounds refers to the free base weights. Once the solution becomes clear/transparent, the remaining volume of the vehicle is added (30% HPBCD prepared in MQ water) to final concentrations of 0.1, 0.3, and 1 mg/ml for Compound 1 and 3 mg/ml of Carbamazepine. The solutions are kept on a stirrer before- and during administration of the compounds to the animals.
(§4) The experimenter assessing the behavioral responses to drug administration is blinded to the drug treatment to the animals. Each treatment group is coded according the scheme below: • A. Vehicle (5% DMSO+30% HPBCD): 10 ml/kg • B. Compound 1: 1 mg/kg • C. Compound 1: 3 mg/kg • D. Compound 1: 10 mg/kg • F. Carbamazepine: 30 mg/kg
(§5) Second baseline measurement was carried out similarly to day 1. […] For each animal, the average of the two baseline nociceptive measurements were calculated within each pain modality (mechanical, heat- and cold pain), and used as baseline (“Baseline” point on figures).
Similarly, to day 1- and 2, all rats were subjected to acclimatization to test equipment and decapicone followed by measurements of ES-induced facial mechanical- heat- and cold allodynia (“0” time point on figures). […] Compound 1, vehicle and Carbamazepine was administered perorally in doses of 1, 3, and 10 mg/kg (Compound 1) or 30 mg/kg (carbamazepine) and drug effects on pain thresholds were evaluated 2- and 4 hours after drug administration by assessment of mechanical- (von Frey) and thermal hypersensitivity (heat- and cold stimulation respectively).
(§6) Decrease in ES-induced pain threshold was evaluated 22 hours following electrical stimulation of the depilated left cheek area (between the eye and ear ridge, this is a receptive field of trigeminal nerve) of each rat and was manifested as facial withdrawal following application of Von Frey filaments for mechanical allodynia and a heat lamp and acetone test for thermal hyperalgesia and allodynia respectively. Baseline pain behaviors were measured similarly to ES-induced facial pain measurements, except that rats were not subjected to ES stimulation.
Mechanical pain thresholds were assessed by measuring each rat's facial withdrawal threshold (g) in response to von Frey monofilaments (BioSeb). […]

[2] = test system: electrocutaneous stimulation-induced facial pain rodent model; test: ES-induced facial pain model, hot thermal hyperalgesia (lamp test, selective C fiber testing), acute treatment; conditions: 30 mg/kg po, post 4 hours of dose, p<0.0001
From the text: as §1, §2, §3, §4
Second baseline measurement was carried out similarly to day 1. Immediately following the second baseline recording, each rat received 1 hr of electrocutaneous stimulation at cheek (0.4 mA intensity, 10 ms duration, 1 s inter-pulse interval). For each animal, the average of the two baseline nociceptive measurements were calculated within each pain modality (mechanical, heat- and cold pain), and used as baseline (“Baseline” point on figures).
Similarly, to day 1- and 2, all rats were subjected to acclimatization to test equipment and decapicone followed by measurements of ES-induced facial mechanical- heat- and cold allodynia (“0” time point on figures). Based on the individual rat's mechanical- and thermal hypersensitivity, 40 rats were selected for drug testing. Compound 1, vehicle and Carbamazepine was administered perorally in doses of 1, 3, and 10 mg/kg (Compound 1) or 30 mg/kg (carbamazepine) and drug effects on pain thresholds were evaluated 2- and 4 hours after drug administration by assessment of mechanical- (von Frey) and thermal hypersensitivity (heat- and cold stimulation respectively).
as §6
Immediately following assessment of mechanical pain threshold, thermal (hot- and cold induced) pain was determined. […]

[3] = test system: electrocutaneous stimulation-induced facial pain rodent model; test: ES-induced facial pain model, cold thermal allodynia (acetone test), acute treatment; conditions: 30 mg/kg po, 2 and 4 hrs post dose, p<0.001 and p<0.0001 vs vehicle
From the text: as §1, §2
The required quantity of the compounds are weighed and dissolved in 100% DMSO in a volume amounting to 5% of the total volume while placed on a stirrer. The weight of the compounds refers to the free base weights. […]
as §5
Similarly, to day 1- and 2, all rats were subjected to acclimatization to test equipment and decapicone followed by measurements of ES-induced facial mechanical- heat- and cold allodynia (“0” time point on figures). […] Compound 1, vehicle and Carbamazepine was administered perorally in doses of 1, 3, and 10 mg/kg (Compound 1) or 30 mg/kg (carbamazepine) and drug effects on pain thresholds were evaluated 2- and 4 hours after drug administration by assessment of mechanical- (von Frey) and thermal hypersensitivity (heat- and cold stimulation respectively). […]

## NC(=O)N1c2ccccc2C=Cc2ccccc21 [Carbamazepine, reference compound]
[1]
  effect on mechanical allodynia (mechanical pain threshold, Von Frey) vs vehicle: significant analgesic effects
[2]
  effect on heat thermal hyperalgesia (facial withdrawal latency) vs vehicle: full reversal of heat hyperalgesia
[3]
  effect on cold pain threshold (acetone test, facial withdrawal latency) vs vehicle: significant enhancement of the cold pain threshold
